Data set [1] addresses NDV-HN of three NDV strains (two NDV La Sota and the velogenic strain APMV-1/chicken/Egypt/13VIR-5009-2/2013) (Newcastle disease virus, UniProt P35743). Put plainly: biochemical.
In data set [2] the test system is NDV La Sota. Nature of the data set: microbe, parasite or virus in culture. Type of data set: cell-based, Newcastle disease virus. The following applies: for IC50: avian paramyxovirus 1, Vero, 48 h, read-out: plaque reduction assay (IC50, μM). In general terms: In a plaque reduction assay, fewer plaques than in the control indicate reduced infectivity or spread.
Data set [3] relates to NDV La Sota. Nature of the data set: microbe, parasite or virus in culture. In kind it is cell-based, Newcastle disease virus. The following applies: avian paramyxovirus 1, Vero, read-out: Inhibition of viral binding (IC50, μM).
The subject of data set [4] is NDV La Sota. Put plainly: microbe, parasite or virus in culture. In kind it is cell-based, Newcastle disease virus. The following applies: avian paramyxovirus 1, Vero, 48 h, read-out: Inhibition of viral release (IC50, μM).
The next data set can be described thus: in vitro. The following applies: African green monkey.
Data set [5] relates to NDV La Sota. Put plainly: microbe, parasite or virus in culture. In kind it is cell-based, Newcastle disease virus. The following applies: avian paramyxovirus 1, Vero, 24 h, read-out: viral yield reduction assay 24 h (IC50, μM).
The target of a further data set is La Sota Clone 30 NDV-HN (Newcastle disease virus, UniProt P35743). In kind it is biochemical.
The next data set has as its system hPIV3-HN. The following applies: read-out: IC50 hPIV3-HN; cited from earlier work.

SMILES strings stand for the structures. Where “and” joins values, the source holds several entries; their conditions need not be identical. Identical values can stand only once. Like-named read-outs stand apart in the source and are kept apart here.

Sequence of NDV-HN of three NDV strains (two NDV La Sota and the velogenic strain APMV-1/chicken/Egypt/13VIR-5009-2/2013) (P35743 whole entry, looked up): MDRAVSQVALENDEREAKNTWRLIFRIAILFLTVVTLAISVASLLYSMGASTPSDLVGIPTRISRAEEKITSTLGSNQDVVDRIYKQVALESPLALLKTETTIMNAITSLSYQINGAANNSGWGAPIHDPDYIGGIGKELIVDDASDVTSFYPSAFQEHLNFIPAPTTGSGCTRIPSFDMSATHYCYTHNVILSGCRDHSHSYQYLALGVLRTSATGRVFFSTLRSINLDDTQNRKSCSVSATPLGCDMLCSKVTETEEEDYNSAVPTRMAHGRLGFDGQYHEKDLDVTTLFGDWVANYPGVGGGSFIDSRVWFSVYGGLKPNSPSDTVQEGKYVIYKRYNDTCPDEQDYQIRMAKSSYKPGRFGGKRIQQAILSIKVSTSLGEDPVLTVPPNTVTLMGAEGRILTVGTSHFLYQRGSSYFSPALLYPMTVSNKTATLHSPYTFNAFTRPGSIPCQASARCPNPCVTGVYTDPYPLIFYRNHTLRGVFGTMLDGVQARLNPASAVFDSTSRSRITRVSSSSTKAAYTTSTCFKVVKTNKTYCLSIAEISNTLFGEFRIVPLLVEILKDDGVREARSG
Sequence of La Sota Clone 30 NDV-HN (P35743 whole entry, looked up): as above

Usually IC50 stands for the midpoint of a concentration-inhibition curve. For the compound `CC(=O)N[C@H]1[C@H]([C@H](O)[C@H](O)CO)OC(C(=O)O)=C[C@@H]1N=C(N)N` [Compound 2, Zanamivir, reference compound], the concentration for half-maximal inhibition (IC50) is 23 to 70 µM in data set [1], 30 ± 7 µM in the data set on NDV La Sota [2], over 100 µM in the data set on NDV La Sota [3] and 29 ± 10 µM in the data set on NDV La Sota [4]. For the same compound, in the data set on NDV La Sota [2], the “selectivity index (CC50/IC50)” value is listed as over 83. The same compound displayed a CC50 in “in vitro” of over 2500 µM.

With `O=C(O)C1=C[C@H](NC(=O)C(F)(F)F)[C@@H](NC(=O)C(F)(F)F)[C@H]([C@H](O)[C@H](O)CO)O1` [Compound 24, 2,6-Anhydro-3,4,5-trideoxy-4,5-di-(2,2,2-trifluoroacetamido)-D-glycero-D-galacto-non-2-enoic Acid], the IC50 in data set [1] was at most 0.2 µM; in the data set on NDV La Sota [2] it was 0.08 ± 0.01 µM; in the data set with NDV La Sota [5], 0.03 ± 0.01 µM; with NDV La Sota [3], 15 µM; in the data set on NDV La Sota [4], 0.17 µM. Moreover, the CC50 in “in vitro” is over 2500 µM.

Consider `Cc1ccc(C(=O)N[C@H]2C=C(C(=O)O)O[C@@H]([C@H](O)[C@H](O)CO)[C@@H]2NC(=O)C(F)(F)F)cc1` [Compound 23, 2,6-Anhydro-4-(4-methylbenzamido)-3,4,5-trideoxy-5-(2,2,2-trifluoroacetamido)-D-glycero-D-galacto-non-2-enoic Acid], for which the “increase in inhibitory activity versus p-toluenesulfonamido 12” value at La Sota Clone 30 NDV-HN amounted to 3 fold. On La Sota Clone 30 NDV-HN, the “times more active than FANA 5” value stood at 40 times. Also, the IC50 in data set [1] was at most 0.2 µM; in the data set on NDV La Sota [2] it was 0.79 ± 0.57 µM; in the data set with NDV La Sota [5], 0.05 ± 0.02 µM; with NDV La Sota [3], 24 µM; in the data set with NDV La Sota [4], 0.13 µM. Besides, the CC50 in “in vitro” was over 2500 µM.

Turning to `O=C(O)C1=C[C@H](O)[C@@H](NC(=O)C(F)(F)F)[C@H]([C@H](O)[C@H](O)CO)O1` [Compound 5, N-trifluoroacetyl-2,3-dehydro-2-deoxyneuraminic acid, reference compound], the half-maximal inhibitory concentration (IC50) in data set [1] is 6.2 to 14 µM; with NDV La Sota [2], 3.5 ± 0.9 µM; with NDV La Sota [5], 0.37 ± 0.08 µM; in the data set on NDV La Sota [3], over 100 µM; in the data set with NDV La Sota [4], 7.7 ± 2.9 µM. Besides, the “selectivity index (CC50/IC50)” value in the data set with NDV La Sota [2] is over 714. The compound further registered a CC50 in “in vitro” of over 2500 µM.

For `CC(C)C(=O)N[C@H]1[C@H]([C@H](O)[C@H](O)CO)OC(C(=O)O)=C[C@@H]1N=[N+]=[N-]` [Compound 4], the 50% inhibitory concentration (IC50) in the data set with hPIV3-HN was 20 µM and 21.5 µM.

For `O=C(O)C1=C[C@H](NS(=O)(=O)c2ccccc2)[C@@H](NC(=O)C(F)(F)F)[C@H]([C@H](O)[C@H](O)CO)O1` [Compound 19, 2,6-Anhydro-4-(phenylsulfonamido)-3,4,5-trideoxy-5-(2,2,2-trifluoroacetamido)-D-glycero-D-galacto-non-2-enoic Acid], on La Sota Clone 30 NDV-HN, the “increase in potency versus methylsulfonamido derivative 14” value amounted to 10 fold.

For `[N-]=[N+]=N[C@H]1C=C(C(=O)O)O[C@@H]([C@H](O)[C@H](O)CO)[C@@H]1NC(=O)C(F)(F)F` [Compound 9], the concentration for half-maximal inhibition (IC50) in data set [1] was about 0.03 µM; in the data set with NDV La Sota [2], 0.17 ± 0.06 µM; in the data set on NDV La Sota [5], 0.04 ± 0.01 µM; in the data set on NDV La Sota [3] it was 23 µM; in the data set with NDV La Sota [4], 0.47 µM. In “in vitro”, this compound came in with a CC50 of over 2500 µM.

Take `[N-]=[N+]=N[C@H]1C=C(C(=O)O)O[C@@H]([C@H](O)[C@H](O)CO)[C@@H]1NC(=O)C(F)(F)C(F)(F)C(F)(F)F` [Compound 10]: the IC50 in data set [1] is about 0.03 µM; in the data set on NDV La Sota [2], 0.06 ± 0.02 µM; in the data set with NDV La Sota [5], 0.04 ± 0.01 µM; with NDV La Sota [3], 4 µM; in the data set on NDV La Sota [4], 0.09 µM. Moreover, in the data set with NDV La Sota [2], the “selectivity index (CC50/IC50)” value is >41,667. Besides, in “in vitro”, the CC50 was over 2500 µM.

Turning to `CC(=O)N[C@H]1[C@H]([C@H](O)[C@H](O)CO)OC(C(=O)O)=C[C@@H]1O` [Compound 1, N-acetyl-2,3-dehydro-2-deoxyneuraminic acid, reference compound], the IC50 in data set [1] is 6.2 to 14 µM; in the data set with NDV La Sota [2] it was 26 ± 13 µM; in the data set on NDV La Sota [5], 1.6 ± 0.6 µM; in the data set with NDV La Sota [3], over 100 µM; in the data set on NDV La Sota [4], 15 ± 8 µM. In addition, the “selectivity index (CC50/IC50)” value with NDV La Sota [2] is on record as over 96. For the same compound, the CC50 in “in vitro” is over 2500 µM.

These data come from article PMC10012260 (ACS Infectious Diseases, 2023).
